SMILES strings stand for the structures. Entries after “also recorded” stand apart in the source; their conditions may differ.

One assay deals with Lewis rat acute EAE. Kind of assay: Acute-active EAE in Lewis rats (MBP immunisation), clinical disease scoring and weight. It counts as in vivo. On the procedure: Female Lewis rats (205+10 g) obtained from Charles River, Kent, UK, were housed in pairs under environmentally controlled conditions (6:00 a.m.-6:00 p.m. light/dark cycle; 22-24° C.; 45-55% humidity) and allowed free access to food and water. […] Female Biozzi mice (20±5 g) obtained from Harlan, UK, were housed under the conditions described above. Experimental groups consisted of 7-10 animals.
Rats were immunised in each hind foot with 50 μl of inoculum containing 50 μg guinea pig myelin basic protein (MBP, prepared by the method of Dunkley and Carnegie (1974); final concentration […]), emulsified in Freund's complete adjuvant (CFA; Sigma, UK) containing Mycobacterium tuberculosis H37Ra (final concentration 5.5 mg/ml; Difco Laboratories, UK).
Animals were weighed and monitored daily and clinical disease scored as (0) no clinical signs; (1) flaccid tail and weight loss; (2) hind limb hypotonia with further weight loss; (3) complete hind limb paralysis; (4) paraplegia and (5) death. […] During the period of compound administration (10-16 days post immunisation; dpi) animals were scored 15 h after injection of vehicle or NBQX to avoid any acute effect of treatment on disease score.
NBQX was initially dissolved in NaOH and diluted with water. pH was adjusted with HCl. Rats were injected i.p. twice daily (9 a.m. and 5 p.m.) on days 10 to 16 post immunisation with either vehicle or NBQX in the dose of 30 mg/kg. Mice were injected i.p. either twice daily (9 a.m. and 5 p.m.) on days 10 to 16 post immunisation or once daily (9 a.m.) on days 26 to 42 post immunisation with either vehicle or NBQX in the dose of 30 mg/kg.
GYKI53773 was suspended in 5% cremophore in saline. Rats were injected i.p. twice daily (9 a.m. and 5 p.m.) on days 10 to 16 post immunisation with either vehicle or GYKM53773 in the dose of 30 mg/kg.
GYKM52466 was suspended in 5% cremophore in water. Rats were injected i.p. twice daily (9 a.m. and 5 p.m.) on days 10 to 16 post immunisation with either vehicle or GYKI52466 in the dose of 30 mg/kg.
BIIR561 was suspended in 5% cremophore in water. Rats were injected i.p. twice daily (9 a.m. and 5 p.m.) on days 10 to 16 post immunisation with either vehicle or BIIR561 in the dose of 30 mg/kg.
CP465022 was suspended in 5% cremophore in water. Rats were injected i.p. twice daily (9 a.m. and 5 p.m.) on days 10 to 16 post immunisation with either vehicle or CP465022 in the dose of 10 mg/kg.
MPQX was initially dissolved in NaOH and diluted with water. pH was adjusted with HCl. Rats were injected i.p. twice daily (9 a.m. and 5 p.m.) on days 10 to 16 post immunisation with either vehicle or MPQX in the dose of 10 mg/kg.

Assay [1] concerns chronic EAE in the Biozzi mouse. The assay is described as follows: Chronic-active EAE in Biozzi mice, clinical disease scoring. It is filed as in vivo.
[2] abbreviates: Lewis rat acute EAE, NBQX 30 mg/kg i.p. twice daily 10-16 dpi.
Setting [3] is: rats, 30 mg/kg i.p. twice daily 10-16 dpi.

For the molecule `NS(=O)(=O)c1cccc2c1c([N+](=O)[O-])cc1nc(O)c(O)nc12` [NBQX, 2,3-dihydroxy6-nitro-7-sulfamoylbenzo-(F)quinoxaline], in the assay with Lewis rat acute EAE (setting [2]), the “Incidence (%)” value was “(75) %” and the “Incidence (animals with neurological deficit / group)” value was 4/10. Further, the “onset of weight loss” value in the assay on Lewis rat acute EAE (NBQX 30 mg/kg i.p. twice daily 10-16 dpi, p<0.01) is given as 13 dpi. For the same molecule, the “rats in which development of paralysis was completely prevented” value with Lewis rat acute EAE (NBQX 30 mg/kg i.p. twice daily from day 10 to 16 post immunisation) is recorded as 6 out of 10. In the assay with Lewis rat acute EAE (mean, 30 mg/kg i.p. twice daily 10-16 dpi), this molecule showed a Duration of 1.5 days. In the assay on Lewis rat acute EAE (mean, n = 4 for NBQX, 30 mg/kg i.p. twice daily 10-16 dpi), this molecule came in with an Onset of 11.8 d.p.i. Besides, in the assay with Lewis rat acute EAE (mean, scale 0-5, 30 mg/kg i.p. twice daily 10-16 dpi), the “Peak Disease Score” value amounted to 0.7. In addition, the “Cumulative Disease Score” value in the assay with Lewis rat acute EAE (mean, summation of individual daily disease scores, 30 mg/kg i.p. twice daily 10-16 dpi) was 2.4. Moreover, the “Weight Loss” value with Lewis rat acute EAE (mean, weight on cessation of treatment (16 dpi) as percent of maximum weight before disease onset, 30 mg/kg i.p. twice daily) stood at 14%. In addition, the “neurological deficits during acute EAE (in words)” value with Lewis rat acute EAE (rats, following treatment) was “reduction in neurological deficits”. For the same molecule, in the assay on Lewis rat acute EAE (setting [3]), the “cumulative disease score relative to vehicle treatment (in words)” value was “significantly reduced” and the “disease duration relative to vehicle treatment (in words)” value was “significantly reduced”. Besides, the “peak disease score relative to vehicle treatment (in words)” value with Lewis rat acute EAE (rats, 30 mg/kg i.p. twice daily 10-16 dpi, 30 mg/kg) is “significantly reduced”. Moreover, in the assay on Lewis rat acute EAE (rats, 30 mg/kg i.p. twice daily 10-16 dpi, vs vehicle), the “severity of paralysis during EAE (in words)” value was “reduces severity of paralysis”. In addition, the “weight loss during the course of EAE (in words)” value with Lewis rat acute EAE (rats, NBQX 30 mg/kg i.p. twice daily 10-16 dpi, up to cessation of treatment (16 dpi)) is on record as “reduces weight loss; also recorded: decreasing the percent body weight lost”. Also, the “disease severity between dpi 28 to 48 (in words)” value in assay [1] (Biozzi mice, NBQX 30 mg/kg i.p. once daily for 17 days commencing on dpi 26, P<0.05) is reported as “reduced disease severity”. The “disease severity between dpi 10 to 48 (in words)” value in assay [1] (Biozzi mice, NBQX 30 mg/kg i.p. twice daily for 7 days starting on dpi 10, P<0.001) is on record as “improved neurological outcome reducing disease severity”. The “severity of paralysis during chronic EAE (in words)” value in assay [1] (NBQX 30 mg/kg i.p., twice daily 10-16 dpi (A) or once daily 26-42 dpi (B)) is on record as “reduces the severity of paralysis”. The “neurological deficit during chronic EAE (in words)” value in assay [1] (mice, following treatment) is listed as “reduction in neurological deficit”.

(Values after patent publication US20050130979A1, “Treatment of demyelinating disorders” (Eisai Co., Ltd., priority 1998, published 2005).)
